The values below come from patent US9782484B2, “Method for producing a composite organic compound powder for medical use” (ACTIVUS PHARMA CO., LTD., priority 2008, dated 2017).

Series [1] in a line: Size distribution of particles in suspension by particle size distribution analyzer (Delsa Nano S). As to conditions: starting compound suspended with 0.03% sodium lauryl sulfate. The series is classed as physicochemical. The protocol: Fine-pulverizing experiments will now be described in each of which a carboxyvinyl polymer and a lecithin were added. The average particle diameter before and after fine-pulverizing for a powder was measured using a BET type specific surface area analyzer (Macsorb model HM-1201, from Mountech Co., Ltd.). The particle diameter of particles in a suspension was measured using a particle size distribution analyzer (Delsa Nano S, from Beckman Coulter, Inc.). “D50” is the diameter of a particle having an integrated value of 50% as counted in order of decreasing particle size (or in order of increasing particle size) (called “median particle diameter”) in the size distribution. “D90” is the diameter of a particle having an integrated value of 90% as counted in order of increasing particle size (called “90% median diameter”) in the size distribution. “Dv” is the volume average diameter (called “average particle diameter”).
An experiment of improving a collection efficiency by addition of a lecithin to fine-pulverized particles will now be described. Unless otherwise stated, the average particle diameter of particles was measured using a BET type specific surface area analyzer (Macsorb model HM-1201, from Mountech Co., Ltd.). The particle diameter of particles in a suspension was measured using a particle size distribution analyzer (Delsa Nano S, from Beckman Coulter, Inc.). “D50” is the diameter of a particle having an integrated value of 50% as counted in order of decreasing particle size (or in order of increasing particle size) (called “median particle diameter”) in the size distribution. “D90” is the diameter of a particle having an integrated value of 90% as counted in order of increasing particle size (called “90% median diameter”) in the size distribution. “Dv” is the volume average diameter (called “average particle diameter”).

A short description of series [2]: Average particle diameter of dried powder converted from BET specific surface area. The series is classed as physicochemical. As to conditions: starting organic compound powder, Table 1 and text. The protocol: According to the present invention, the “average particle diameter converted from the BET specific surface area” is calculated by converting a value of the specific surface area measured by the BET flow method (one-point type) to the diameter of a hypothetical spherical particle. The following formula 1 is a conversion formula for converting a value of the specific surface area to the diameter. Here, D is an average particle diameter, ρ is a solid density, S is a specific surface area, and α is a shape factor. α is 6 for spherical particles. D=α/(ρ·S) (formula 1)
The BET flow method is preferably a method for measuring the specific surface area by the following procedure. A mixed gas of nitrogen and helium is flowed into a cell in which a sample to be measured is placed, followed by cooling the sample with liquid nitrogen. Then, only nitrogen gas adsorbs to the surface of the sample. Subsequently, when the cell is returned to ordinary temperature, the desorption of the gas occurs. During the desorption of gas, the proportion of nitrogen gas in the mixed gas flowing through one detector becomes larger than the proportion of nitrogen gas flowing through another detector. The difference between signals from these detectors represents the adsorption amount, enabling the measurement of the specific surface area.
Fine-pulverizing experiments are first described in each of which a carboxyvinyl polymer was added. The average particle diameter before and after fine-pulverizing for a dried powder was calculated by converting, by the above-described formula 1, the BET specific surface area measured using a BET type specific surface area analyzer (Macsorb model […], from Mountech Co., Ltd.). The observation of the powder before and after fine-pulverizing was carried out using a scanning electron microscope (model SEM VE-7800, from Keyence Corporation).
Fine-pulverizing experiments will now be described in each of which a carboxyvinyl polymer and a lecithin were added. The average particle diameter before and after fine-pulverizing for a powder was measured using a BET type specific surface area analyzer (Macsorb model HM-1201, from Mountech Co., Ltd.). The particle diameter of particles in a suspension was measured using a particle size distribution analyzer (Delsa Nano S, from Beckman Coulter, Inc.). “D50” is the diameter of a particle having an integrated value of 50% as counted in order of decreasing particle size (or in order of increasing particle size) (called “median particle diameter”) in the size distribution. “D90” is the diameter of a particle having an integrated value of 90% as counted in order of increasing particle size (called “90% median diameter”) in the size distribution. “Dv” is the volume average diameter (called “average particle diameter”). […]

In the case of `Nc1nc2c(ncn2COCCO)c(=O)[nH]1` [aciclovir], in series [1], the “90% median diameter (D90) before fine-pulverizing” value is on record as 69,371 nm, the “average particle diameter (Dv) before fine-pulverizing” value is 60,371 nm and the “median particle diameter (D50) before fine-pulverizing” value is reported as 52,997 nm.
For `C[C@@H]1[C@H](O)[C@@H](C)/C=C/C=C/C=C/C=C/C=C/C=C/C=C/[C@H](O[C@@H]2O[C@H](C)[C@@H](O)[C@H](N)[C@@H]2O)C[C@@H]2O[C@](O)(C[C@@H](O)C[C@@H](O)[C@H](O)CC[C@@H](O)C[C@@H](O)CC(=O)O[C@H]1C)C[C@H](O)[C@H]2C(=O)O` [amphotericin B], in that order: 15,181 nm, 13,423 nm and 11,843 nm.
For the compound `COc1ccc2c(c1)c(CC(=O)O)c(C)n2C(=O)c1ccc(Cl)cc1` [indomethacin], the “Average Particle Diameter before Fine-pulverizing” value in series [2] is given as 3,960 nm.
For `CCC(=O)O[C@]1(C(=O)SCF)[C@H](C)C[C@H]2[C@@H]3C[C@H](F)C4=CC(=O)C=C[C@]4(C)[C@@]3(F)[C@@H](O)C[C@@]21C` [fluticasone propionate], the “Average Particle Diameter before Fine-pulverizing” value in series [2] is 7,850 nm.
The same measure, in the same setting: under `O=C(O)Cc1ccc(-c2ccccc2)cc1` [felbinac] stands 34,000 nm; under `Clc1ccc(COC(Cn2ccnc2)c2ccc(Cl)cc2Cl)c(Cl)c1` (stereo not shown) [miconazole], 10,900 nm.
